This note sets out measurements from US20250051344A1, “BIFUNCTIONAL SELECTIVE DEGRADERS OF SMARCA2 AND THERAPEUTIC USES THEREOF” (Nurix Therapeutics, Inc., priority 2023, published 2025).

Each structure is given as a SMILES string.

One test addresses T1, SMARCA4 (Homo sapiens, UniProt P51532).
T1 construct: endogenous in cells
As to the kind of experiment: Cellular degradation assay, SMARCA4 (Table 1). In kind it is cell-based.

In a further test the target is T2, SMARCA2 (Homo sapiens, UniProt P51531).
T2 construct: endogenous in cells
As to the kind of experiment: SMARCA2 Cellular Degradation Assay (Western blot analysis on Jess platform). The class given is cell-based. The settings on record: for DC50 / Dmax: cellular degradation; for Fold Selectivity SMARCA4/2: ratio DC50 SMARCA4 / DC50 SMARCA2. The procedure, abridged:
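SMARCA2 protein in lysates of cells isolated from tumors was measured by capillary immunoassay at 5 μg protein per capillary, using actin as loading reference; degradation was expressed as percent SMARCA2 left compared with vehicle-treated samples.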

As usually defined, the DC50 is the concentration at which degradation of the target reaches its halfway point. A higher DC50 goes with degradation only at high concentration. By Dmax is commonly meant the largest share of the target that was removed. A low value points to shallow degradation.

T2 sequence (P51531 whole entry, species assumed): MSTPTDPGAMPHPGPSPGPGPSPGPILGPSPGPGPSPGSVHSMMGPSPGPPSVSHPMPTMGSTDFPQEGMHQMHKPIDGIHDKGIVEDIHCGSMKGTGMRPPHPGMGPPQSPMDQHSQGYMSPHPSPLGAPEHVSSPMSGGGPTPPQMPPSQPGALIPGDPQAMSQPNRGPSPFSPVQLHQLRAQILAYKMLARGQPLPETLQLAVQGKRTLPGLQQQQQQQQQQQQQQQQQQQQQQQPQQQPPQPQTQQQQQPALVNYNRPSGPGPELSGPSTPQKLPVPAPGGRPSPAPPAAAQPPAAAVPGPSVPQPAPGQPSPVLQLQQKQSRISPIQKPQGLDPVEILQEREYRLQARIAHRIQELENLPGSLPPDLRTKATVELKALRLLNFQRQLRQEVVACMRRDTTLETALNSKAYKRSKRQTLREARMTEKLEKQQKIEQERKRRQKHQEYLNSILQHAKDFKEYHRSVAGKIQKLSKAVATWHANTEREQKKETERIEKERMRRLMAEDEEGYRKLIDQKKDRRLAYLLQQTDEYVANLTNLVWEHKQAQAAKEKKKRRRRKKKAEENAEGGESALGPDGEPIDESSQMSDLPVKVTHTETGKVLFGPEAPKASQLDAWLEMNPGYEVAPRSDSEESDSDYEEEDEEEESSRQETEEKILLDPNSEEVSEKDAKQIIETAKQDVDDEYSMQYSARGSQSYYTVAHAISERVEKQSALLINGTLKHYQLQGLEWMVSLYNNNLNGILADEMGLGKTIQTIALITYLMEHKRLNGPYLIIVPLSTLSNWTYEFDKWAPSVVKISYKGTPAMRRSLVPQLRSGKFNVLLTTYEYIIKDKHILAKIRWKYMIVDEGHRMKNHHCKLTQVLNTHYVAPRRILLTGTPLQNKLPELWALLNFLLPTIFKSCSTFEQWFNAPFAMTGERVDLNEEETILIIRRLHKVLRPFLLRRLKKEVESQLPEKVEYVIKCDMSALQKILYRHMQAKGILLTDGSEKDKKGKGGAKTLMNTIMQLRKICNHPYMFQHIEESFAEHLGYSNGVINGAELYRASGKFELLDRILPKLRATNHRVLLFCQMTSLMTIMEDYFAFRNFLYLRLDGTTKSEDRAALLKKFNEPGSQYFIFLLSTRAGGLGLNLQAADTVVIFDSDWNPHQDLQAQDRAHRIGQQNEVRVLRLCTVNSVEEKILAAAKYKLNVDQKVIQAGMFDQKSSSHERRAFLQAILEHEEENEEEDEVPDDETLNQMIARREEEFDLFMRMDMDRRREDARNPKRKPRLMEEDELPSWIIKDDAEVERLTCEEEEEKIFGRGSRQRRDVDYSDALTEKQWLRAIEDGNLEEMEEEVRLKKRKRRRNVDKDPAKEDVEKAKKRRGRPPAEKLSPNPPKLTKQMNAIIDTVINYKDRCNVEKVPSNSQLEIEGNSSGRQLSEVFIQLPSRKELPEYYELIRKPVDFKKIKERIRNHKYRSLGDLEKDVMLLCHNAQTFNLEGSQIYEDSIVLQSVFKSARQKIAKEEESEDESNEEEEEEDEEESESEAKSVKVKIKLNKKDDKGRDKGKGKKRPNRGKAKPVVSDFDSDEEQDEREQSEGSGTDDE
T1 sequence (P51532 whole entry, species assumed): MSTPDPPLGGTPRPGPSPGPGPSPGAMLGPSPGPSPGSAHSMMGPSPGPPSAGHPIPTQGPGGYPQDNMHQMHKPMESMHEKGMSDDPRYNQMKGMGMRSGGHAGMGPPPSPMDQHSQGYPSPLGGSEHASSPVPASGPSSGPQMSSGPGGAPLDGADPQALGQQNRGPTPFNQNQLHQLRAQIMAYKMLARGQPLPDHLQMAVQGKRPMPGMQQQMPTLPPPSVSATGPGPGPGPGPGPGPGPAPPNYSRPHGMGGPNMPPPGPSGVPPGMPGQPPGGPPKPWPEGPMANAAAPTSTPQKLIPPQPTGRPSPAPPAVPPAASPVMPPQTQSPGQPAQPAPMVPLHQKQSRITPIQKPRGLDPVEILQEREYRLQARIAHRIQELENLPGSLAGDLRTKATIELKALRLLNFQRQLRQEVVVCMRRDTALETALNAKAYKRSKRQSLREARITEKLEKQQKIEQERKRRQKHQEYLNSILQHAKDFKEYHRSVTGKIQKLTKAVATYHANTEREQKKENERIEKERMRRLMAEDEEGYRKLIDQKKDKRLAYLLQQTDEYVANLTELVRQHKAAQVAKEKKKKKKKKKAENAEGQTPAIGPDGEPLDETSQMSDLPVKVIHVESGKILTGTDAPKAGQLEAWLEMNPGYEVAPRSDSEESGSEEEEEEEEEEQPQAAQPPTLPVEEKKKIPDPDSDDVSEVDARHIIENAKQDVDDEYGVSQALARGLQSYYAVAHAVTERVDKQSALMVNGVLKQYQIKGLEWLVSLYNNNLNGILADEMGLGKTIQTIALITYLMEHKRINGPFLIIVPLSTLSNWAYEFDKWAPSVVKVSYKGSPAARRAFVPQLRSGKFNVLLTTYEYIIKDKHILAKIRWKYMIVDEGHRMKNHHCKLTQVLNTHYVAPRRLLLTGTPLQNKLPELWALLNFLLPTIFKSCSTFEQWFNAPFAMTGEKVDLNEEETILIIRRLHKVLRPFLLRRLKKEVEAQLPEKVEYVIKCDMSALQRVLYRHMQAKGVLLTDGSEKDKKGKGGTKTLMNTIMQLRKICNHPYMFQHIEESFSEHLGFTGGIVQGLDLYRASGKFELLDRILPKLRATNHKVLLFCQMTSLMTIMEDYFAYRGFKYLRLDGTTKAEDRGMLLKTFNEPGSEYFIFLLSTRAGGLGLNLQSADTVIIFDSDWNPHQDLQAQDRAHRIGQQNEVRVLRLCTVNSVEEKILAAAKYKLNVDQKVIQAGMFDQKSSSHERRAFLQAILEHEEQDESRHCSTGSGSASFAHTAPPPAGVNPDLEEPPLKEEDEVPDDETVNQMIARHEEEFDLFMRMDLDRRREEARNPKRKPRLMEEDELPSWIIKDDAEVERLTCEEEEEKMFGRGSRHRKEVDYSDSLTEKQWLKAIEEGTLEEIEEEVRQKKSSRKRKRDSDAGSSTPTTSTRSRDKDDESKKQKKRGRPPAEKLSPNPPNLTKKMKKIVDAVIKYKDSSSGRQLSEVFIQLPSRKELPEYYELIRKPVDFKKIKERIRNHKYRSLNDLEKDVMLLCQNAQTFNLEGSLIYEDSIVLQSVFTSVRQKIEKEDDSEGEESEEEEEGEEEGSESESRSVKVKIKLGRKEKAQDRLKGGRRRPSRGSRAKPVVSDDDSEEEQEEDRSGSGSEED

`Cn1ccc(C2(C(=O)N3CC4(CN(CC5CCN(c6ccc(C7CCC(=O)NC7=O)cc6)CC5)C4)C3)CCN(c3cnnc(-c4ccccc4O)c3)CC2)n1` (racemic) [Example 54, rac-(R)-3-(4-(4-((6-(1-(6-(2-hydroxyphenyl)pyridazin-4-yl)-4-(1-methyl-1H-pyrazol-3-yl)piperidine-4-carbonyl)-2,6-diazaspiro[3.3]heptan-2-yl)methyl)piperidin-1-yl)phenyl)piperidine-2,6-dione]: at SMARCA4, the 50% degradation concentration (DC50) is 58.6 nM and the Dmax was determined as 56.8%. At SMARCA2, the DC50 turned out to be 6.7 nM, the Dmax worked out at 80.5% and the “Fold Selectivity SMARCA4/2” value was 8.74.

`O=C1CCC(c2ccc(N3CCN(C(=O)CCCN4CCN(C(=O)C5(c6ccccc6)CCN(c6cnnc(-c7ccccc7O)c6)CC5)CC4)CC3)cc2)C(=O)N1` (racemic) [Example 22, rac-(3R)-3-(4-{4-[4-(4-{1-[6-(2-hydroxyphenyl)pyridazin-4-yl]-4-phenylpiperidine-4-carbonyl}piperazin-1-yl)butanoyl]piperazin-1-yl}phenyl)piperidine-2,6-dione] had a Dmax on SMARCA4 of 20.6%. Moreover, on SMARCA2, the Dmax was found to be 30.5% and the “Fold Selectivity SMARCA4/2” value worked out at 1.

For the compound `O=C1CC[C@H](c2ccc(N3CCC(CN4CCC5CN(C(=O)C6(c7ccccc7)CCN(c7cnnc(-c8ccccc8O)c7)CC6)C5C4)CC3)cc2)C(=O)N1` (stereo partly drawn) [Example 51, (3R)-3-(4-{4-[(8-{1-[6-(2-hydroxyphenyl)pyridazin-4-yl]-4-phenylpiperidine-4-carbonyl}-3,8-diazabicyclo[4.2.0]octan-3-yl)methyl]piperidin-1-yl}phenyl)piperidine-2,6-dione], the maximal degradation (Dmax) on SMARCA4 came to 0.85%. In addition, at SMARCA2, the Dmax came to 26.7% and the “Fold Selectivity SMARCA4/2” value is 1.

On SMARCA4, `Cc1cccc(C2(C(=O)N3CC4(CN(CC5CCN(c6ccc(C7CCC(=O)NC7=O)cc6)CC5)C4)C3)CCN(c3cnnc(-c4ccccc4O)c3)CC2)c1` (racemic) [Example 43, rac-(3R)-3-(4-{4-[(6-{1-[6-(2-hydroxyphenyl)pyridazin-4-yl]-4-(3-methylphenyl)piperidine-4-carbonyl}-2,6-diazaspiro[3.3]heptan-2-yl)methyl]piperidin-1-yl}phenyl)piperidine-2,6-dione] came in with a DC50 of 83.4 nM and a maximal degradation (Dmax) of 59.3%. In addition, on SMARCA2, half-maximal degradation (DC50) was put at 11.9 nM, the Dmax is 78.5% and the “Fold Selectivity SMARCA4/2” value is on record as 6.99.

Consider `O=C1CCC(c2ccc(N3CCC(CN4CC5(C4)CN(CC4(c6ccccc6)CCN(c6cnnc(-c7ccccc7O)c6)CC4)C5)CC3)cc2)C(=O)N1` (racemic) [Example 44, rac-(3R)-3-[4-(4-{[6-({-[6-(2-hydroxyphenyl)pyridazin-4-yl]-4-phenylpiperidin-4-yl}methyl)-2,6-diazaspiro[3.3]heptan-2-yl]methyl}piperidin-1-yl)phenyl]piperidine-2,6-dione], for which, at SMARCA4, the DC50 was found to be 24.6 nM and the Dmax was determined as 77.5%. Moreover, on SMARCA2, half-maximal degradation (DC50) was put at 6.22 nM, the Dmax was found to be 86.6% and the “Fold Selectivity SMARCA4/2” value came to 3.95.

At SMARCA4, `O=C1CC[C@@H](c2ccc(O[C@H]3CC[C@H](CN4CC5(C4)CN(C(=O)C4(c6ccccc6)CCN(c6cnnc(-c7ccccc7O)c6)CC4)C5)CC3)cc2)C(=O)N1` (racemic) [Example 166, (3RS)-3-(4-{[(1r,4r)-4-[(6-{1-[6-(2-hydroxyphenyl)pyridazin-4-yl]-4-phenylpiperidine-4-carbonyl}-2,6-diazaspiro[3.3]heptan-2-yl)methyl]cyclohexyl]oxy}phenyl)piperidine-2,6-dione] returned a DC50 of 317 nM and a Dmax of 35.2%. Besides, on SMARCA2, the DC50 came to 24.2 nM, the Dmax was found to be 65.8% and the “Fold Selectivity SMARCA4/2” value was determined as 13.

On to `O=C1CC[C@H](c2ccc(N3CCC(CCN4CCC(C(=O)NCC5(c6ccccc6)CCN(c6cnnc(-c7ccccc7O)c6)CC5)C5CC54)CC3)cc2)C(=O)N1` (mixture of isomers) [Example 84, rac-2-(2-(1-(4-((r)-2,6-dioxopiperidin-3-yl)phenyl)piperidin-4-yl)ethyl)-n-((1-(6-(2-hydroxyphenyl)pyridazin-4-yl)-4-phenylpiperidin-4-yl)methyl)-2-azabicyclo[4.1.0]heptane-5-carboxamide], for which, on SMARCA4, half-maximal degradation (DC50) was put at 46.5 nM and the Dmax was determined as 61.9%. Further, on SMARCA2, half-maximal degradation (DC50) was put at 4.23 nM, the Dmax came to 89.5% and the “Fold Selectivity SMARCA4/2” value came to 11.

Regarding `Cc1ccccc1OC1(C(=O)N(C)C2CCN(C(=O)CN3CCC(c4ccc([C@@H]5CCC(=O)NC5=O)cc4)CC3)CC2)CCN(c2cnnc(-c3ccccc3O)c2)CC1` (racemic) [Example 116, rac-n-(1-(2-(4-(4-(2,6-dioxopiperidin-3-yl)phenyl)piperidin-1-yl)acetyl)piperidin-4-yl)-1-(6-(2-hydroxyphenyl)pyridazin-4-yl)-n-methyl-4-(o-tolyloxy)piperidine-4-carboxamide], at SMARCA4, the DC50 is 57.4 nM and the Dmax came out at 75.8%. Moreover, on SMARCA2, half-maximal degradation (DC50) was put at 7.97 nM, the Dmax was 88.6% and the “Fold Selectivity SMARCA4/2” value came out at 7.

Turning to `O=C1CC[C@@H](c2ccc(N3CCN(CC4=NO[C@@H]5CN(C(=O)C6(c7ccccc7)CCN(c7cnnc(-c8ccccc8O)c7)CC6)C[C@H]45)CC3)cc2)C(=O)N1` (racemic) [Example 165, (3RS&)-3-[4-(4-{[(3aRS,6aSR)-5-{1-[6-(2-hydroxyphenyl)pyridazin-4-yl]-4-phenylpiperidine-4-carbonyl}-3aH,4H,5H,6H,6aH-pyrrolo[3,4-d][1,2]oxazol-3-yl]methyl}piperazin-1-yl)phenyl]piperidine-2,6-dione], at SMARCA4, the DC50 turned out to be 1000 nM and the Dmax was determined as 34%. Also, at SMARCA2, the half-maximal degradation concentration (DC50) came out at 45.8 nM, the Dmax came out at 58% and the “Fold Selectivity SMARCA4/2” value worked out at 22.

At SMARCA4, `CN(C(=O)C1(OC2CCCCC2)CCN(c2cnnc(-c3ccccc3O)c2)CC1)C1CCN(C(=O)CN2CCC(c3ccc([C@@H]4CCC(=O)NC4=O)cc3)CC2)CC1` (racemic) [Example 117, rac-4-(cyclohexyloxy)-n-(1-(2-(4-(4-(2,6-dioxopiperidin-3-yl)phenyl)piperidin-1-yl)acetyl)piperidin-4-yl)-1-(6-(2-hydroxyphenyl)pyridazin-4-yl)-n-methylpiperidine-4-carboxamide] showed a DC50 of 153 nM and a Dmax of 62.4%. Besides, at SMARCA2, the DC50 was determined as 16.7 nM, the greatest degradation seen (Dmax) was found to be 82.1% and the “Fold Selectivity SMARCA4/2” value came out at 9.

At SMARCA4, `COC1(C(=O)NCC2(c3ccccc3)CCN(c3cnnc(-c4ccccc4O)c3)CC2)CCN(CCC2CCN(c3ccc([C@H]4CCC(=O)NC4=O)cc3)CC2)CC1` (racemic) [Example 83, rac-(r)-1-(2-(1-(4-(2,6-dioxopiperidin-3-yl)phenyl)piperidin-4-yl)ethyl)-n-((1-(6-(2-hydroxyphenyl)pyridazin-4-yl)-4-phenylpiperidin-4-yl)methyl)-4-methoxypiperidine-4-carboxamide] yielded a DC50 of 20.2 nM and a Dmax of 73.3%. Moreover, at SMARCA2, the DC50 was 2.3 nM, the greatest degradation seen (Dmax) worked out at 91.8% and the “Fold Selectivity SMARCA4/2” value is on record as 9.

At SMARCA4, `O=C1CC[C@H](n2ccc3cc(N4CCC(CN5CCC(NC(=O)C6(c7ccccc7)CCN(c7cnnc(-c8ccccc8O)c7)CC6)CC5)CC4)ccc3c2=O)C(=O)N1` [Example 157, N-{1-[(1-{2-[(3S)-2,6-dioxopiperidin-3-yl]-1-oxo-1,2-dihydroisoquinolin-6-yl}piperidin-4-yl)methyl]piperidin-4-yl}-1-[6-(2-hydroxyphenyl)pyridazin-4-yl]-4-phenylpiperidine-4-carboxamide] returned a DC50 of 8.12 nM and a Dmax of 82.6%. Besides, at SMARCA2, the 50% degradation concentration (DC50) stood at 1.56 nM, the Dmax stood at 91.8% and the “Fold Selectivity SMARCA4/2” value was determined as 5.

As for `Cc1cnn(C2(C(=O)N(C)C3CCN(CC4CCN(c5ccc([C@H]6CCC(=O)NC6=O)cc5)CC4)CC3)CCN(c3cnnc(-c4ccccc4O)c3)CC2)c1` [Example 154, N-{1-[(1-{4-[(3R)-2,6-dioxopiperidin-3-yl]phenyl}piperidin-4-yl)methyl]piperidin-4-yl}-1-[6-(2-hydroxyphenyl)pyridazin-4-yl]-N-methyl-4-(4-methyl-1H-pyrazol-1-yl)piperidine-4-carboxamide], at SMARCA4, it took 22.3 nM to reach half-maximal degradation (DC50) and the Dmax came to 65.6%. Also, on SMARCA2, the DC50 came to 2.87 nM, the Dmax worked out at 87.7% and the “Fold Selectivity SMARCA4/2” value amounted to 8.

Turning to `O=C1CC[C@H](c2ccc(N3CCC(CN4CC[C@@H](NC(=O)C5(c6ccccc6)CCN(c6cnnc(-c7ccccc7O)c6)CC5)CC45CCC5)CC3)cc2)C(=O)N1` [Example 190, N-[(8R)-5-[(1-{4-[(3R)-2,6-dioxopiperidin-3-yl]phenyl}piperidin-4-yl)methyl]-5-azaspiro[3.5]nonan-8-yl]-1-[6-(2-hydroxyphenyl)pyridazin-4-yl]-4-phenylpiperidine-4-carboxamide], on SMARCA4, the DC50 was found to be 81.9 nM and the Dmax was 58.8%. In addition, on SMARCA2, the DC50 was found to be 2.72 nM, the Dmax was 89.2% and the “Fold Selectivity SMARCA4/2” value was 30.

With `O=C1CC[C@@H](c2ccc(OCC3CCN(CC4CCN(C(=O)C5(c6ccccc6)CCN(c6cnnc(-c7ccccc7O)c6)CC5)CC4)CC3)cc2)C(=O)N1` [Example 35, (3S)-3-[4-({1-[(1-{1-[6-(2-hydroxyphenyl)pyridazin-4-yl]-4-phenylpiperidine-4-carbonyl}piperidin-4-yl)methyl]piperidin-4-yl}methoxy)phenyl]piperidine-2,6-dione], on SMARCA4, the Dmax came to 22.6%. Moreover, at SMARCA2, the half-maximal degradation concentration (DC50) is 80.5 nM, the maximal degradation (Dmax) stood at 57% and the “Fold Selectivity SMARCA4/2” value was determined as 124.30.
